For 87 compounds, melting point results are on record in a melting point compilation (Tetko et al.; mined from patent text by program, amines drawn as free bases though some values may be those of a salt).

What is called melting point is the temperature, or range, at which the solid turns liquid.

Compound `CCCCN1C(=O)N(C2CCN(CC3CCCCC3)CC2)C(c2ccccc2)c2ccccc21` (configuration not stated) had a melting point of 115 to 117 °C. Regarding `O=C(NO)c1cnc(N(CCO)Cc2cc3nc(-c4cccc5[nH]ncc45)nc(N4CCOCC4)c3s2)nc1`, the melting point is 190 to 194 °C. Regarding `CS(=O)(=O)c1ccc(-c2cc(CCO[N+](=O)[O-])nn2C2CCCCC2)cc1`, the melting point came out at 117 °C. In the case of `CCOC(=O)COc1ccc(SCCc2cccc3sc(-c4ccc(C(F)(F)F)cc4)nc23)cc1C` it was 97 to 100 °C; in that of `CCCCn1c(=O)c(NC(=O)Nc2c(C(C)C)cc(CO)cc2C(C)C)c(-c2cccc(OC)c2)c2cccnc21`, 122 to 123 °C. In the case of `O=C(NCCCCCCOC(=O)N1CCC(OC(=O)NC2CCCCC2)CC1)Oc1ccc(Oc2ccccc2)cc1`, the melting point lay in the range of 138 to 142 °C. `CC(C)(O)c1ccc(-c2cnc3[nH]c(=O)n(CC4CCCCC4)c3n2)cc1` had a melting point of 226 to 228 °C. In turn, `CCOC(=O)c1cnn2c1nc(OCC)c1cnc3c(cnn3CC)c12` showed a melting point of 167 to 168 °C. `CC(C)[C@H]1[C@@H](O)CC(=O)N1c1ccc(C#N)c(Cl)c1` displayed a melting point of 100 to 102 °C. `COc1cc(Oc2ccc(C(=O)N(C3CCCCC3)C3CCCC3)cc2)cc(OC)c1OC` yielded a melting point of 166 °C. Under `NC(=O)c1ccc2c(c1)CCOC2CCN1CCN(c2ccc(Cl)cc2)CC1` (configuration not stated) stands 169 to 171 °C; under `COc1ccc(-c2cnc(N3Cc4c([nH]c5ccccc5c4=O)C3c3ccc4c(c3)OCO4)nc2)cc1` (configuration not stated), 325 to 327 °C. In the case of `CCOC(=O)C(C)(C)n1c(=O)[nH]c2ccc(C)cc2c1=O` it was 156 to 157 °C; in that of `Fc1ccc(C(CCCN2CCC(c3nn(-c4ccccc4)c4cc(F)ccc34)CC2)c2ccc(F)cc2)cc1`, 113 to 115 °C; in that of `C=CNC(=O)C(C)(Cc1ccccc1)S(=O)(=O)CCCl` (configuration not stated), 107 to 108 °C. With `COc1ccccc1NC(=O)Nc1ccc(CC(=O)OC(C)(C)C)cc1C`, the melting point was in the range of 157 to 158 °C.

In turn, `O=C1NC(=O)C(c2ccc(F)cc2)(c2ccc(F)cc2)C(=O)N1` came in with a melting point of 315 to 318 °C. Compound `Cn1cc(C2=C(c3csc4ccccc34)C(=O)NC2=O)c2ccccc21` came in with a melting point of 238 to 241 °C. On to `Cc1cc2[nH]c(CC(C)(C)N3C(=O)c4ccccc4C3=O)nn2n1`, for which the melting point lay in the range of 197 to 199 °C. `O=Cc1ccc(OCc2ccccc2)c2[nH]c(C(=O)O)cc12` gave a melting point of 207 °C. On to `CC(C)(C)c1csc(N)c1C#N`, for which the melting point amounted to 92 °C. In the case of `Cc1ccc2c(c1)c1cc(C(=O)c3ccccc3C(=O)O)ccc1n2CCC#N` it was 190 °C; in that of `CCCCCCC(C(=O)O)n1ccc2cc(-c3cccc(OC)c3C(=O)O)ccc21` (configuration not stated), 80 to 90 °C; in that of `Cn1c(C(CCN2CCC(O)(c3ccccc3)CC2)c2ccc(Cl)c(Cl)c2)cc2ccccc2c1=O` (configuration not stated), 100 to 102 °C. The compound `CSCC(C)Nc1nccc(-c2ccnc(Cl)c2)n1` (configuration not stated) had a melting point of 103 to 106 °C. In the case of `COc1ccc(CCNC(=O)c2ccc3n2Cc2ccccc2N(C(=O)c2ccc(-c4ccccc4C)c(C)c2)C3)cc1` it was 170 to 172 °C; in that of `CCCCOC(=O)c1ccc(Cl)nn1`, 110 to 111 °C; in that of `CCc1cc(=O)c(I)c(CC)[nH]1`, 225 to 227 °C. In turn, `CCCCCC(CC(=O)Nc1cc(C(N)=O)ccc1C(C)(C)C)c1cc(C)c(OC)cc1OC` (configuration not stated) yielded a melting point of 179 to 180 °C. As to `CCOc1cccc(NC(=O)NS(=O)(=O)c2ccc(C)cc2)n1`, the melting point lay within 197 to 199 °C. As to `COc1ccc2c(c1)CCC1C2CCC2(C)C1CCC2N(C)CCOCCO` (configuration not stated), the melting point is 102 °C.

Take `COc1ccc(N2CCN(CCC3OCCc4ccc(C(N)=O)cc43)CC2)cc1` (configuration not stated): the melting point fell in the range of 178 to 180 °C. Under `Cc1ccc([N+](=O)[O-])cc1NC(N)=S` stands 164 to 166 °C. For the compound `CCCCCCOC(Cc1ccc(OCCc2nc(-c3ccccc3)oc2C)c2ccsc12)C(=O)O` (configuration not stated), the melting point was 79 to 82 °C. Compound `CCOC(=O)c1c(O)c2sccc2[nH]c1=O` showed a melting point of 218 °C. Under `COc1cc(C)c(C(=O)c2c(Cl)cccc2Cl)c(OC)c1OC` stands 92 °C; under `O=C(Nc1cc(S(=O)(=O)N(CCO)CCO)sc1Cl)c1cnn2c(C(F)F)cc(-c3ccc(C(F)(F)F)cc3)nc12`, 216 °C. For `COC(=O)c1ncc(C)cc1S(N)(=O)=O`, the melting point was in the range of 86 to 88 °C. The compound `CC(C)(C)NC(=O)N(C=O)Oc1cc(Cl)ccc1Cl` showed a melting point of 101 to 102 °C. In the case of `COc1ccc(Oc2c(Cl)cc([N+](=O)[O-])cc2Cl)cc1C(C)C` it was 75 to 77 °C. In the case of `CCCCCCCCCCCCCCOc1ccc(C(C)=O)o1` it was 70 to 72 °C. Under `CC(=O)SCC(C(=O)N[C@@H](CC(C)C)C(=O)O)C(F)(F)F` (some centres not stated) stands 150 to 152 °C; under `COC(CCc1ccc(Cl)cc1Cl)(Cn1cncn1)C(C)(C)C1OCCCO1` (configuration not stated), 130 to 132 °C; under `CSC1=NC(C)(C)CN1C(=O)Nc1c(C)cccc1C`, 178 to 179 °C.

`Cc1c(OCCNC(=O)OC(C)(C)C)noc1-c1ccccc1` had a melting point of 118 to 120 °C. Under `COc1cccc(C2OCCC(C)(C)C2(O)C(C)C)c1` (configuration not stated) stands 56 to 56.9 °C. `COc1ccc(-c2sc3c(c2OC(C)=O)CCCC3)cc1` gave a melting point of 81 °C. Turning to `O=C(O)C(Cl)(Cl)CCCCCCCCCCCCC(Cl)(Cl)C(=O)O`, the melting point was 114 °C.

Take `CCOC1Cc2cc3ccc(=O)oc3c(OC)c2O1` (configuration not stated): the melting point is 119 to 120 °C. Under `CC(=O)Nc1ccc(-n2c(-c3ccccc3)cc3c2CCCC3)cc1C(=O)O` stands 192 to 194 °C.

`CS(=O)c1ccc(C2ON2S(=O)(=O)c2ccccc2)cc1` (configuration not stated) registered a melting point of 115 to 118 °C. Consider `CC(C)(C)Oc1ccc2cc(C=O)ccc2c1`, for which the melting point was 51 to 52 °C. Under `COC(CC(=O)c1ccc(Br)cc1)C(=O)c1ccc(Br)cc1` (configuration not stated) stands 153 to 154 °C; under `COc1ccc(CSc2cccc(N)c2)cc1`, 85 to 86 °C; under `COc1ccc(Nc2nc(-c3cccc(C(=O)Nc4ccc(C(=O)O)cc4)c3)cn3ccnc23)cc1OC`, > 250 °C. In the case of `CCOc1ccc(C(=O)Nc2ccccc2)cc1NC(=S)Nc1cc(Cl)cc(Cl)c1` it was 201 to 202 °C; in that of `Clc1ccc(N2CCN(CCCc3c4c(nn3-c3ccc(Cl)cc3)CCCC4)CC2)cc1`, 129 to 131 °C; in that of `O=C(O)c1cn(C2CC2)c2nc(N3CCNCC3)c(F)cc2c1=O`, 274 to 276 °C.

For the compound `COc1cc(C)c(C=CC=CC=C(C)C(=O)O)c(C)c1C`, the melting point was in the range of 179 to 180 °C. `COC(=O)CCc1ccc(N(c2ccc(-c3ccc(N(c4ccc(CCC(=O)OC)cc4)c4cccc5ccccc45)cc3)cc2)c2cccc3ccccc23)cc1`: the melting point fell in the range of 117 to 120 °C. For `COc1ccc(CNc2nc(CCCC(=O)O)nc3sc(Cl)cc23)cc1Cl`, the melting point was 114 °C. Compound `Cn1nc(C(F)(F)F)c(CS(=O)(=O)C2=NOC(C)(CCl)C2)c1Cl` (configuration not stated) yielded a melting point of 114 to 116 °C. Under `ON=Cc1cn2c(n1)COc1ccccc1-2` stands 232 to 233 °C. Compound `O=C(O)CN1C(=O)C2(COc3cc4c(cc32)CCO4)c2c(Cl)cccc21` (configuration not stated) registered a melting point of 228 to 229 °C. For `OCc1nc2n(n1)-c1cccnc1N(c1ccc(Cl)cc1)C2`, the melting point lay in the range of 240 to 245 °C. Consider `COCCOc1ccc(CCCOC(=O)NS(=O)(=O)NCCOC(C)C)c(Oc2ncc(Cl)cc2Cl)c1`, for which the melting point lay within 87.5 to 88.4 °C.

`Cc1ccccc1C(=O)Nc1nc2ccccc2c(=O)n1C` yielded a melting point of 185 to 186 °C. Compound `CCOCc1nnc2c(C(F)(F)F)c(CN[C@H]3CC[C@@H](c4ccccc4)CC3)ccn12` returned a melting point of 137 °C. Under `O=C(O)c1ccccc1C(=O)NCCC(Oc1c(Br)cc(-c2ccc(-c3c(Cc4ccccc4)sc4ccccc34)cc2)cc1Br)C(=O)O` (configuration not stated) stands 130 to 132 °C.

`CCCN(Cc1ccccc1C(=O)O)c1ccc(CC(=O)O)cc1`: the melting point was 163 °C.

Compound `Fc1ccc(-c2nc(Cl)nc3c2CCC3)cc1` yielded a melting point of 106 to 107 °C. In turn, `COC(=O)CCc1cnoc1-c1ccc(Cl)c(F)c1` came in with a melting point of 53 to 54 °C. On to `COc1cc(C(=O)c2nc(C#N)c3ccccn23)ccc1[N+](=O)[O-]`, for which the melting point is 219 °C.

`C[C@H](NC(=O)c1ccc(Cn2nnc(-c3ccc(OC(=O)C(C)(C)C)cc3)n2)cc1)C(=O)O` returned a melting point of 192 to 195 °C. Under `CCCCCNc1cccc2c1C(=O)N(C1CCC(=O)NC1=O)C2=O` (configuration not stated) stands 141 to 143 °C; under `CCOc1ccc2[nH]c(=O)n(-c3ccccc3Cl)c2c1`, 97 °C; under `C=Cc1ccc(NC(=O)N2CCN(c3ncnc4cc(OC)c(OC)cc34)CC2)cc1`, 214 to 216 °C.

`Cc1ccccc1Oc1nnc(Cl)c(C)c1O` showed a melting point of 209 to 213 °C.

`CCCCCCCCCCCCCCCCOCC(CO)OCOC(C)=O` (configuration not stated) returned a melting point of 44 °C. `CCCCc1cc(NN)n2nccc2n1` registered a melting point of 126 to 129 °C. Under `O=C(CCc1ccccc1)N[C@H](Cc1ccc(C(F)(F)F)cc1)[C@@H](O)c1ccc(F)cc1` (racemic) stands 144 to 145 °C; under `c1ccc(COc2ccc3nc(-c4ccc(C56CC7CC(CC(C7)C5)C6)c(OCc5ccccc5)c4)[nH]c3c2)cc1`, 203 °C. In turn, `COc1cc(Br)c(S(C)(=O)=O)cc1C(=O)O` displayed a melting point of 225 to 258 °C. In turn, `COc1ccc(NC(=O)c2cccc(OC)c2N)cc1` registered a melting point of 168 to 169 °C. Under `CC(COc1ccc2ccc(N)nc2n1)CN(C)C` (configuration not stated) stands 108 °C. Compound `CCOC(=O)C1CCCCN1C(=O)Nc1cc(C(=O)OC(C)C)c(Cl)cc1F` (configuration not stated) returned a melting point of 83 to 85 °C.

With `CN(c1ccccc1)c1ncccc1NC(=O)c1ccccc1F`, the melting point is 84 to 86 °C.
